Experimental findings from patent US12064420B2, “Tie-2 activators targeting the Schlemm's canal” (EyePoint Pharmaceuticals, Inc., priority 2019, dated 2024) are described below.

The experiment relates to ocular normotensive human patients with diabetic eye disease. As to the kind of experiment: Phase 2 trial: IOP after subcutaneous Compound 1 alone or with intravitreal ranibizumab, diabetic macular edema. The format is in vivo. The method, then: IOP in patients were measured using a double-masked, parallel-group designed to assess the effects of subcutaneous (SC) Compound 1 (sodium salt) alone, or as an adjunct to intravitreal ranibizumab trial. 144 human subjects with diabetic retinopathy complicated by center-involved diabetic macular edema (DME) were randomized to 3 months of one of 3 treatments: 1) Compound 1 (15 mg) SC twice daily (BID) plus sham monthly intravitreal injection (IVT); 2) Compound 1 SC BID plus ranibizumab (0.3 mg) monthly IVT; and 3) Placebo SC BID+ranibizumab IVT. At baseline, mean age was 61.3±1.3 years; 59% of subjects were male; 82.6% had Type 2 diabetes; mean HBA1c was 7.5%±1.3%; mean best corrected visual acuity was 60.2 ETDRS letters (Snellen 20/63); and mean IOP was 15.7 mmHg±3.4. Ophthalmic safety assessments were performed at baseline and monthly during the 3-month treatment period including a single IOP measurement by applanation tonometry in both the study eye and the fellow eye at each time point. By protocol, all patients had baseline IOP<24 mmHg (ocular normotensive).
In the pre-specified safety analysis, change from baseline IOP was analyzed using a t-test (null hypothesis 0 change from baseline). The level of significance was set at 0.05. A post hoc analysis of the subject level IOP measure was the change from baseline in the average over both eyes within a subject for each timepoint. Statistical testing of each timepoint was completed using ANCOVA with baseline IOP (averaged over both eyes within a subject) as covariate. Additionally, statistical testing averaging across all timepoints was completed using a mixed-model repeated measures ANCOVA. The level of significance was set at 0.05.

The mark [1] stands for this setting: average of study eye and fellow eye, week 4.
The mark [2] stands for this setting: average of study eye and fellow eye, week 8.
Where [3] appears, read: average of study eye and fellow eye, week 12.

As to “ranibizumab [Placebo + ranibizumab, reference compound]”, under setting [1], the “Week 4 subject-level IOP change from BL, mean (SD)” value was −0.2 (2.61) mmHg and the “Week 4 subject-level IOP, mean (SD)” value was 15.2 (3.50) mmHg. Moreover, under setting [2], the “Week 8 subject-level IOP change from BL, mean (SD)” value is listed as 0.2 (2.86) mmHg and the “Week 8 subject-level IOP, mean (SD)” value is on record as 15.3 (3.31) mmHg. Further, under setting [3], the “Week 12 subject-level IOP change from BL, mean (SD)” value is recorded as 0.0 (3.32) mmHg and the “Week 12 subject-level IOP, mean (SD)” value is listed as 15.5 (3.85) mmHg. Where the note is “fellow eye (FE), week 4”, the “Week 4 IOP change from BL, mean (SD)” value is recorded as −0.3 (3.49) mmHg and the “Week 4 IOP, mean (SD)” value is listed as 15.5 (4.85) mmHg. Further, under “fellow eye (FE), week 8”, the “Week 8 IOP change from BL, mean (SD)” value was −0.3 (3.44) mmHg and the “Week 8 IOP, mean (SD)” value is 15.5 (4.52) mmHg. Further, where the note is “fellow eye (FE), week 12”, the “Week 12 IOP change from BL, mean (SD)” value was −0.1 (3.62) mmHg and the “Week 12 IOP, mean (SD)” value is 15.7 (5.19) mmHg. For the same substance, for the setting “study eye (SE), week 4”, the “Week 4 IOP change from BL, mean (SD)” value was −0.1 (2.74) mmHg and the “Week 4 IOP, mean (SD)” value is on record as 15.0 (3.50) mmHg. Further, for the setting “study eye (SE), week 8”, the “Week 8 IOP change from BL, mean (SD)” value is reported as 0.0 (3.25) mmHg and the “Week 8 IOP, mean (SD)” value was 15.0 (3.61) mmHg. In addition, where the note is “study eye (SE), week 12”, the “Week 12 IOP change from BL, mean (SD)” value was 0.1 (3.83) mmHg and the “Week 12 IOP, mean (SD)” value is recorded as 15.3 (4.09) mmHg. For the same substance, for the setting “study or fellow eye, all time points”, the “mean change in IOP from baseline” value is −0.3 to +0.1 mmHg.
